Reference: patent publication US8076487B2, “Pyridone derivative and herbicide” (Kumiai Chemical Industry Co., Ltd., priority 2006, dated 2011)

Assays:
Assay type in all cases: in vivo
[1] = system: Japanese bulrush (Scirpus juncoides Roxb.); test: Test Example 1: herbicidal effect by soil application to paddy field; details: paddy field soil application; active ingredient 1,000 g per 1 hectare; wettable powder added dropwise to water surface the day after sowing; examined on the 21st day after application
How it was run: (§1)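 Under greenhouse conditions, seeds sown on puddled paddy soil in 100 cm2 pots under 3 cm of standing water received the test compound; injury was assessed with a standard scoring scheme three weeks (day 21) after treatment.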

[2] = system: early watergrass (Echinochloa oryzicola Vasing); test: as above; details: paddy field soil application; active ingredient 1,000 g per 1 hectare; wettable powder added dropwise to water surface the day after sowing; examined on the 21st day after application
How it was run: as §1

[3] = system: heartshape false pickerelweed (Monochoria vaginalis (Burm.f.) C.Presl); test: as above; details: paddy field soil application; active ingredient 1,000 g per 1 hectare; wettable powder added dropwise to water surface the day after sowing; examined on the 21st day after application
How it was run: as §1

[4] = system: barnyardgrass (Echinochloa crus-galli (L.) P. Beauv. var. crus-galli); test: Test Example 2: herbicidal effect by soil application to upland field; details: soil surface spray, upland field soil, 1,000 g active ingredient per hectare, 21st day after application
How it was run: (§2)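 Soil surface treatment after sowing: wettable powder in water, 1,000 g a.i./ha, spray volume 1,000 L/ha. Greenhouse. Scored on a standard herbicidal scale at day 21.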

[5] = system: green foxtail (Setaria viridis (L.) P. Beauv.); test: as above; details: soil surface spray, upland field soil, 1,000 g active ingredient per hectare, 21st day after application
How it was run: as §2

[6] = system: slender amaranth (Amaranthus viridis L.); test: as above; details: soil surface spray, upland field soil, 1,000 g active ingredient per hectare, 21st day after application
How it was run: as §2

[7] = system: velvetleaf (Abutilon theophrasti medicus); test: as above; details: soil surface spray, upland field soil, 1,000 g active ingredient per hectare, 21st day after application
How it was run: as §2

[8] = system: barnyardgrass (Echinochloa crus-galli (L.) P. Beauv. var. crus-galli); test: Test Example 3: herbicidal effect by application to upland field (foliage treatment); details: foliage treatment, 1,000 g active ingredient per 1 hectare, 14th day after application, greenhouse
How it was run: (§3)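 Read-out is a visual herbicidal-effect grade on a standard scale, taken on the 14th day after a single foliar spray. The spray was wettable powder diluted in water, 1,000 g active ingredient/ha at 1,000 L/ha, applied to greenhouse plants two weeks after sowing.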

[9] = system: green foxtail (Setaria viridis (L.) P. Beauv.); test: as above; details: foliage treatment, 1,000 g active ingredient per 1 hectare, 14th day after application, greenhouse
How it was run: as §3

[10] = system: slender amaranth (Amaranthus viridis L.); test: as above; details: foliage treatment, 1,000 g active ingredient per 1 hectare, 14th day after application, greenhouse
How it was run: as §3

[11] = system: velvetleaf (Abutilon theophrasti medicus); test: as above; details: foliage treatment, 1,000 g active ingredient per 1 hectare, 14th day after application, greenhouse
How it was run: as §3

SMILES	herbicidal effect, Scirpus juncoides Roxb. [1]	herbicidal effect, Echinochloa oryzicola Vasing [2]	herbicidal effect, Monochoria vaginalis (Burm. f.) C. Presl [3]	herbicidal effect (index), Barnyardgrass [4]	herbicidal effect (index), Green Foxtail [5]	herbicidal effect (index), Slender Amaranth [6]	herbicidal effect (index), Velvetleaf [7]	herbicidal effect, Barnyardgrass [8]	herbicidal effect, Green Foxtail [9]	herbicidal effect, Slender Amaranth [10]	herbicidal effect, Velvetleaf [11]
O=C(C1=C(O)C2CCC(C2)C1=O)c1ccc(C(F)(F)F)n(-c2ccccc2)c1=O (stereo not shown) [III-34]	5 (90% or more of herbicidal effect and crop phytotoxicity)	5 (90% or more of herbicidal effect and crop phytotoxicity)	5 (90% or more of herbicidal effect and crop phytotoxicity)	5 (90% or more of herbicidal effect and crop phytotoxicity)	5 (90% or more of herbicidal effect and crop phytotoxicity)	5 (90% or more of herbicidal effect and crop phytotoxicity)	5 (90% or more of herbicidal effect and crop phytotoxicity)	5 (90% or more of herbicidal effect and crop phytotoxicity)	5 (90% or more of herbicidal effect and crop phytotoxicity)	5 (90% or more of herbicidal effect and crop phytotoxicity)	5 (90% or more of herbicidal effect and crop phytotoxicity)
Cc1ccc(-n2c(C(F)(F)F)ccc(C(=O)C3=C(O)C4CCC(C4)C3=O)c2=O)cc1 (stereo not shown) [III-35]	5 (90% or more of herbicidal effect and crop phytotoxicity)	5 (90% or more of herbicidal effect and crop phytotoxicity)	5 (90% or more of herbicidal effect and crop phytotoxicity)	5 (90% or more of herbicidal effect and crop phytotoxicity)	5 (90% or more of herbicidal effect and crop phytotoxicity)	5 (90% or more of herbicidal effect and crop phytotoxicity)	5 (90% or more of herbicidal effect and crop phytotoxicity)	5 (90% or more of herbicidal effect and crop phytotoxicity)	5 (90% or more of herbicidal effect and crop phytotoxicity)	5 (90% or more of herbicidal effect and crop phytotoxicity)	5 (90% or more of herbicidal effect and crop phytotoxicity)
O=C(C1=C(O)C2CCC(C2)C1=O)c1ccc(C(F)(F)F)n(CC2CCCO2)c1=O (stereo not shown) [III-38]	5 (90% or more of herbicidal effect and crop phytotoxicity)	5 (90% or more of herbicidal effect and crop phytotoxicity)	5 (90% or more of herbicidal effect and crop phytotoxicity)	5 (90% or more of herbicidal effect and crop phytotoxicity)	3 (50 to less than 70% of herbicidal effect and crop phytotoxicity)	5 (90% or more of herbicidal effect and crop phytotoxicity)	5 (90% or more of herbicidal effect and crop phytotoxicity)	5 (90% or more of herbicidal effect and crop phytotoxicity)	4 (70 to less than 90% of herbicidal effect and crop phytotoxicity)	5 (90% or more of herbicidal effect and crop phytotoxicity)	5 (90% or more of herbicidal effect and crop phytotoxicity)
Cn1ncc(C(=O)c2ccc(C(F)(F)F)n(C)c2=O)c1O [IV-1, 4-[1,2-dihydro-1-methyl-2-oxo-6-(trifluoromethyl)pyridine-3-carbonyl]-5-hydroxy-1-methyl-1H-pyrazole]	5 (90% or more of herbicidal effect and crop phytotoxicity)	5 (90% or more of herbicidal effect and crop phytotoxicity)	5 (90% or more of herbicidal effect and crop phytotoxicity)	5 (90% or more of herbicidal effect and crop phytotoxicity)	4 (70 to less than 90% of herbicidal effect and crop phytotoxicity)	5 (90% or more of herbicidal effect and crop phytotoxicity)	5 (90% or more of herbicidal effect and crop phytotoxicity)	4 (70 to less than 90% of herbicidal effect and crop phytotoxicity)	4 (70 to less than 90% of herbicidal effect and crop phytotoxicity)	5 (90% or more of herbicidal effect and crop phytotoxicity)	5 (90% or more of herbicidal effect and crop phytotoxicity)
CCn1c(C(F)(F)F)ccc(C(=O)c2cnn(C)c2O)c1=O [IV-2]	5 (90% or more of herbicidal effect and crop phytotoxicity)	5 (90% or more of herbicidal effect and crop phytotoxicity)	5 (90% or more of herbicidal effect and crop phytotoxicity)	5 (90% or more of herbicidal effect and crop phytotoxicity)	5 (90% or more of herbicidal effect and crop phytotoxicity)	5 (90% or more of herbicidal effect and crop phytotoxicity)	5 (90% or more of herbicidal effect and crop phytotoxicity)	5 (90% or more of herbicidal effect and crop phytotoxicity)	5 (90% or more of herbicidal effect and crop phytotoxicity)	5 (90% or more of herbicidal effect and crop phytotoxicity)	5 (90% or more of herbicidal effect and crop phytotoxicity)
CCCn1c(C(F)(F)F)ccc(C(=O)c2cnn(C)c2O)c1=O [IV-3]	5 (90% or more of herbicidal effect and crop phytotoxicity)	5 (90% or more of herbicidal effect and crop phytotoxicity)	5 (90% or more of herbicidal effect and crop phytotoxicity)	5 (90% or more of herbicidal effect and crop phytotoxicity)	5 (90% or more of herbicidal effect and crop phytotoxicity)	5 (90% or more of herbicidal effect and crop phytotoxicity)	5 (90% or more of herbicidal effect and crop phytotoxicity)	5 (90% or more of herbicidal effect and crop phytotoxicity)	5 (90% or more of herbicidal effect and crop phytotoxicity)	5 (90% or more of herbicidal effect and crop phytotoxicity)	5 (90% or more of herbicidal effect and crop phytotoxicity)
CCCn1c(C(F)(F)F)ccc(C(=O)c2cnn(C)c2OC(=O)c2ccccc2)c1=O [IV-4]	5 (90% or more of herbicidal effect and crop phytotoxicity)	5 (90% or more of herbicidal effect and crop phytotoxicity)	5 (90% or more of herbicidal effect and crop phytotoxicity)	5 (90% or more of herbicidal effect and crop phytotoxicity)	5 (90% or more of herbicidal effect and crop phytotoxicity)	5 (90% or more of herbicidal effect and crop phytotoxicity)	5 (90% or more of herbicidal effect and crop phytotoxicity)	5 (90% or more of herbicidal effect and crop phytotoxicity)	4 (70 to less than 90% of herbicidal effect and crop phytotoxicity)	5 (90% or more of herbicidal effect and crop phytotoxicity)	5 (90% or more of herbicidal effect and crop phytotoxicity)
CCCCn1c(C(F)(F)F)ccc(C(=O)c2cnn(C)c2O)c1=O [IV-6]	5 (90% or more of herbicidal effect and crop phytotoxicity)	5 (90% or more of herbicidal effect and crop phytotoxicity)	5 (90% or more of herbicidal effect and crop phytotoxicity)	5 (90% or more of herbicidal effect and crop phytotoxicity)	5 (90% or more of herbicidal effect and crop phytotoxicity)	5 (90% or more of herbicidal effect and crop phytotoxicity)	5 (90% or more of herbicidal effect and crop phytotoxicity)	5 (90% or more of herbicidal effect and crop phytotoxicity)	5 (90% or more of herbicidal effect and crop phytotoxicity)	5 (90% or more of herbicidal effect and crop phytotoxicity)	5 (90% or more of herbicidal effect and crop phytotoxicity)
